A value given as a limit tells only on which side of the number the result lay.

In the first assay the target is T1, 5-HT 1D beta receptors (Homo sapiens, UniProt P28222).
T1 construct: expressed in transfected cells; host or cells: CHO cells
T1 sequence (P28222 whole entry): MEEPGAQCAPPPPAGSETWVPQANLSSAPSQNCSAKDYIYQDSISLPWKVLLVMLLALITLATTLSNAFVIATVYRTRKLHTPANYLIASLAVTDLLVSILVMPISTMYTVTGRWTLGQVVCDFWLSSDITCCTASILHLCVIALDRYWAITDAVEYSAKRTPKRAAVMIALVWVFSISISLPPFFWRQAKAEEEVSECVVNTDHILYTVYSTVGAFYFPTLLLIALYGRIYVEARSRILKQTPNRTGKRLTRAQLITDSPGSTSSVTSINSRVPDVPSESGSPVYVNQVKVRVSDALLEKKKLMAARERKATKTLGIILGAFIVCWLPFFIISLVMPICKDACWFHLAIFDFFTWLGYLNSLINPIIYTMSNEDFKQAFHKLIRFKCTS
The experiment in a line: 5-HT 1D beta binding ([3H]-5-HT displacement, homogenised CHO cells).
Conditions: not given
The protocol:
5-HT 1D ALPHA AND 5-HT 1D BETA BINDING.
CHO cells expressing 5-HT 1D beta receptors (4×10^7 cells/ml) are homogenised in Tris buffer and stored in 1.5 ml aliquots.
0.4 ml of a cell suspension was incubated with [^3 H]-5-HT (4 nM) in Tris Mg HCl buffer (pH 7.7) and test drug, at 37° C. for 45 minutes. Each test drug was tested at 10 concentrations (0.01 mM to 0.3 nM final concentration), with non-specific binding defined using 0.01 mM 5-HT. The total assay volume was 0.5 ml. Incubation was stopped by rapid filtration using a Packard Filtermate (filters pre-soaked in 0.3% polyethylenimine) and radioactivity measured by Topcount scintillation counting. The pKi values were calculated from the IC50 generally by an iterative leas squares curve fitting programme.
The compound `CCN1CCC2(CC1)COc1cc3c(cc12)N(C(=O)c1ccc(-c2ccc(-c4nnc(C)o4)cc2C)cc1)CC3` [Example 26, 1'-Ethyl-5-[2'-methyl-4'-(5-methyl-1,3,4-oxadiazol-2-yl)biphenyl-4-carbonyl]-2,3,6,7-tetrahydrospiro[furo[2,3-f]indole-3,4'-piperidine]] came in with a Ki of less than 0.01 µM.

The assay is the same for the next values; noted with them: CHO cells expressing 5-HT 1D beta receptors; [3H]-5-HT (4 nM); 37° C. for 45 minutes; pKi calculated from the IC50; read-out: pKi values at 5-HT 1D beta receptors (converted).
As to `CCN1CCC2(CC1)COc1cc3c(cc12)N(C(=O)c1ccc(-c2ccc(-c4noc(C)n4)cc2C)cc1)CC3` [Example 4, 1'-Ethyl-5-(2'-methyl-4'-(5-methyl-1,2,4-oxadiazol-3-yl)biphenyl-4-carbonyl)-2,3,6,7-tetrahydrospiro[furo[2,3-f]indole-3,4'-piperidine]], the Ki was less than 0.01 µM.

In the case of `Cc1nnc(-c2ccc(-c3ccc(C(=O)N4CCc5cc6c(cc54)C4(CCN(C)CC4)CO6)cc3)c(C)c2)o1` [Example 5, 1'-Methyl-5-(2'-methyl-4'-(5-methyl-1,3,4-oxadiazol-2-yl)biphenyl-4-carbonyl)-2,3,6,7-tetrahydrospiro[furo[2,3-f]indole-3,4'-piperidine]], the Ki was less than 0.01 µM.

Regarding `Cc1cc(-c2noc(N(C)C)n2)ccc1-c1ccc(C(=O)N2CCc3cc4c(cc32)C2(CCN(C)CC2)CO4)cc1` [Example 6, 5-(4'-(5-Dimethylamino-1,2,4-oxadiazol-3-yl)-2'-methylbiphenyl-4-carbonyl)-1'-methyl-2,3,6,7-tetrahydrospiro[furo[2,3-f]indole-3,4'-piperidine]], the Ki is less than 0.01 µM.

Regarding `Cc1nc(-c2ccc(-c3ccc(C(=O)n4ccc5cc6c(cc54)C4(CCN(C)CC4)CO6)cc3)c(C)c2)no1` [Example 8, 2,3-Dihydro-1'-methyl-5-(2'-methyl-4'-(5-methyl-1,2,4-oxadiazol-3-yl)biphenyl-4-carbonyl)spiro[furo[2,3-f]indole-3,4'-piperidine)], the Ki was less than 0.01 µM.

Regarding `Cc1nnc(-c2ccc(-c3ccc(C(=O)n4ccc5cc6c(cc54)C4(CCN(C)CC4)CO6)cc3)c(C)c2)o1` [Example 18, 2,3-Dihydro-1'-methyl-5-(2'-methyl-4'-(5-methyl-1,3,4-oxadiazol-2-yl)biphenyl-4-carbonyl)spiro[furo[2,3-f]indole-3,4'-piperidine]], the Ki was less than 0.01 µM.

For `COC(=O)c1ccc(C)c(-c2ccc(C(=O)N3CCc4cc5c(cc43)C3(CCN(C)CC3)CO5)cc2)c1` [Example 23, 5-(5'-Methoxycarbonyl-2'-methylbiphenyl-4-carbonyl)-1'-methyl-2,3,6,7-tetrahydrospiro[furo[2,3-f]indole-3,4'-piperidine]], the Ki was less than 0.01 µM.

As to `Cc1nnc(-c2ccc(-c3ccc(C(=O)N4CCc5cc6c(cc54)C4(CCO6)CCN(C)CC4)cc3)c(C)c2)o1` [Example 40, 1'-Methyl-6-[2°-methyl-4'-(5-methyl-1,3,4-oxadiazol-2-yl)biphenyl-4-carbonyl]-2,3,7,8-tetrahydrospiro[4H-pyrano[2,3-f]indole-4,4'-piperidine]], the Ki is less than 0.01 µM.

On to `Cc1cc(-c2ccc(-c3ccc(C(=O)N4CCc5cc6c(cc54)C4(CCN(C)CC4)CO6)cc3)c(C)c2)no1` [Example 45, 1'-Methyl-5-(2'-methyl-4'-(5-methylisoxazol-3-yl)biphenyl-4-carbonyl)-2,3,6,7-tetrahydrospiro[furo[2,3-f]indole-3,4'-piperidine]], for which the Ki is less than 0.01 µM.

Turning to `Cc1cc(-c2cnccn2)ccc1-c1ccc(C(=O)N2CCc3cc4c(cc32)C2(CCN(C)CC2)CO4)cc1` [Example 51, 1'-Methyl-5-(2'-methyl-4'-pyrazinylbiphenyl-4-carbonyl)-2,3,6,7-tetrahydrospiro[furo[2,3-f]indole-3,4'-piperidine]], the Ki is less than 0.01 µM.

Consider `Cc1cc(-c2cncn2C)ccc1-c1ccc(C(=O)N2CCc3cc4c(cc32)C2(CCN(C)CC2)CO4)cc1` [Example 54, 1'-Methyl-5-[2'-methyl-4'-(1-methylimidazol-5-yl)biphenyl-4-carbonyl]-2,3,6,7-tetrahydrospiro[furo[2,3-f]indole-3,4'-piperidine]], for which the Ki was less than 0.01 µM.

Turning to `Cc1cc(-c2noc(CO)n2)ccc1-c1ccc(C(=O)N2CCc3cc4c(cc32)C2(CCN(C)CC2)CO4)cc1` [Example 55, 5-[4'-(5-Hydroxymethyl-1,2,4-oxadiazol-3-yl)-2'-methylbiphenyl-4-carbonyl]-1'-methyl-2,3,6,7-tetrahydrospiro[furo[2,3-f]indole-3,4'-piperidine]], the Ki was less than 0.01 µM.

For `Cc1cc(-c2nccnn2)ccc1-c1ccc(C(=O)N2CCc3cc4c(cc32)C2(CCN(C)CC2)CO4)cc1` [Example 57, 1'-Methyl-5-[2'-methyl-4'-(1,2,4-triazin-3-yl)biphenyl-4-carbonyl]-2,3,6,7-tetrahydrospiro[furo[2,3-f]indole-3,4'-piperidine]], the Ki is less than 0.01 µM.

Turning to `CCOC(=O)Nc1ccc(-c2ccc(C(=O)N3CCc4cc5c(cc43)C3(CCN(CC)CC3)CO5)cc2)c(C)c1` [Example 66, 5-[4'-(Ethoxycarbonylamino)-2'-methylbiphenyl-4-carbonyl]-1'-ethyl-2,3,6,7-tetrahydrospiro[furo[2,3-f]indole-3,4'-piperidine]], the Ki is less than 0.01 µM.
